Experimental data as given in ChEMBL document CHEMBL1142408, “Synthesis and biological evaluation of 10,11-dihydrodictyostatin, a potent analogue of the marine anticancer agent dictyostatin” (J Nat Prod, 2008).
pIC50: −log10 of the molar value. Activity calls are given as the source filed them. The rule behind the calls is not given here.

Columns and labels:
Format in all cases: functional, cell-based
ASPC1 = assay: Cytotoxicity against human AsPC1 cells after 72 hrs by MTT assay; conditions: ASPC1, 72 h
PANC-1 [1] = assay: Cytotoxicity against human PANC1 cells after 72 hrs by MTT assay; conditions: PANC-1, 72 h
PANC-1 [2] = assay: Microtubule polymerization in human PANC1 cells
[3] = Cytotoxicity against taxol-resistant human NCI/ADR cells after 72 hrs by MTT assay; conditions: NCI/ADR-RES
DLD-1 = assay: Cytotoxicity against human DLD1 cells after 72 hrs by MTT assay; conditions: DLD-1, 72 h
PANC-1 [4] = assay: Cell cycle arrest in human PANC1 cells assessed as accumulation at G2/M phase after 24 hrs
P388 = assay: Cytotoxicity against mouse P388 cells by MTT assay

C=C/C=C\[C@H](C)[C@@H]1OC(=O)/C=C\C=C\[C@@H](C)[C@@H](O)C[C@H](O)CC[C@H](C)[C@H](O)[C@@H](C)C[C@@H](C)CC[C@@H](O)[C@@H]1C
pIC50 (ASPC1): 7.37
pIC50 (PANC-1 [1]): 7.74
Activity (PANC-1 [2]): Active
pIC50 [3]: 6.52
pIC50 (DLD-1): 8.00
Activity (PANC-1 [4]): Active

C=C/C=C\[C@H](C)[C@@H]1OC(=O)/C=C\C=C\[C@@H](C)[C@@H](O)C[C@H](O)/C=C\[C@H](C)[C@H](O)[C@@H](C)C[C@@H](C)CC[C@@H](O)[C@@H]1C [DICTYOSTATIN]
pIC50 (ASPC1): 8.05
pIC50 (PANC-1 [1]): 8.47
pIC50 [3]: 8.01
pIC50 (DLD-1): 9.10

C=C/C=C\[C@H](C)[C@H](OC(N)=O)[C@@H](C)[C@H](O)[C@@H](C)C/C(C)=C\[C@H](C)[C@@H](O)[C@@H](C)/C=C\[C@@H](O)C[C@@H]1OC(=O)[C@H](C)[C@@H](O)[C@H]1C [DISERMOLIDE]
pIC50 (ASPC1): 7.01
pIC50 (PANC-1 [1]): 7.23
pIC50 (P388): 7.46
pIC50 [3]: 6.80
pIC50 (DLD-1): 7.54

CC(=O)O[C@H]1C(=O)[C@@]2(C)[C@H]([C@H](OC(=O)c3ccccc3)[C@]3(O)C[C@H](OC(=O)[C@H](O)[C@@H](NC(=O)c4ccccc4)c4ccccc4)C(C)=C1C3(C)C)[C@]1(OC(C)=O)CO[C@@H]1C[C@@H]2O [PACLITAXEL]
pIC50 (ASPC1): 7.70
pIC50 (PANC-1 [1]): 8.15
pIC50 [3]: 6.00
pIC50 (DLD-1): 7.96
